The source of these data is patent US20220347168A1, “LUNG TARGETED ANTICANCER THERAPIES WITH LIPOSOMAL ANNAMYCIN” (Board of Regents, The University of Texas System, priority 2019, published 2022).

One data set has as its target P-glycoprotein 1 (P-gp) (Homo sapiens, UniProt P08183). Particulars: earlier studies; cited from earlier work.
The nature of data set [1]: Pharmacokinetic and organ distribution studies of Annamycin and L-Annamycin. The format is in vivo. Particulars: CD-1, mouse, lung and plasma, intravenous, 4 mg/kg; AUC, 24 h; read-out: Annamycin levels (AUC, 24 h) in lungs relative to plasma.
Data set [2] relates to multidrug resistant (MDR) cell lines. Particulars: earlier studies; cited from earlier work.

Chain of P-glycoprotein 1 (P-gp) (P08183 whole entry, species assumed): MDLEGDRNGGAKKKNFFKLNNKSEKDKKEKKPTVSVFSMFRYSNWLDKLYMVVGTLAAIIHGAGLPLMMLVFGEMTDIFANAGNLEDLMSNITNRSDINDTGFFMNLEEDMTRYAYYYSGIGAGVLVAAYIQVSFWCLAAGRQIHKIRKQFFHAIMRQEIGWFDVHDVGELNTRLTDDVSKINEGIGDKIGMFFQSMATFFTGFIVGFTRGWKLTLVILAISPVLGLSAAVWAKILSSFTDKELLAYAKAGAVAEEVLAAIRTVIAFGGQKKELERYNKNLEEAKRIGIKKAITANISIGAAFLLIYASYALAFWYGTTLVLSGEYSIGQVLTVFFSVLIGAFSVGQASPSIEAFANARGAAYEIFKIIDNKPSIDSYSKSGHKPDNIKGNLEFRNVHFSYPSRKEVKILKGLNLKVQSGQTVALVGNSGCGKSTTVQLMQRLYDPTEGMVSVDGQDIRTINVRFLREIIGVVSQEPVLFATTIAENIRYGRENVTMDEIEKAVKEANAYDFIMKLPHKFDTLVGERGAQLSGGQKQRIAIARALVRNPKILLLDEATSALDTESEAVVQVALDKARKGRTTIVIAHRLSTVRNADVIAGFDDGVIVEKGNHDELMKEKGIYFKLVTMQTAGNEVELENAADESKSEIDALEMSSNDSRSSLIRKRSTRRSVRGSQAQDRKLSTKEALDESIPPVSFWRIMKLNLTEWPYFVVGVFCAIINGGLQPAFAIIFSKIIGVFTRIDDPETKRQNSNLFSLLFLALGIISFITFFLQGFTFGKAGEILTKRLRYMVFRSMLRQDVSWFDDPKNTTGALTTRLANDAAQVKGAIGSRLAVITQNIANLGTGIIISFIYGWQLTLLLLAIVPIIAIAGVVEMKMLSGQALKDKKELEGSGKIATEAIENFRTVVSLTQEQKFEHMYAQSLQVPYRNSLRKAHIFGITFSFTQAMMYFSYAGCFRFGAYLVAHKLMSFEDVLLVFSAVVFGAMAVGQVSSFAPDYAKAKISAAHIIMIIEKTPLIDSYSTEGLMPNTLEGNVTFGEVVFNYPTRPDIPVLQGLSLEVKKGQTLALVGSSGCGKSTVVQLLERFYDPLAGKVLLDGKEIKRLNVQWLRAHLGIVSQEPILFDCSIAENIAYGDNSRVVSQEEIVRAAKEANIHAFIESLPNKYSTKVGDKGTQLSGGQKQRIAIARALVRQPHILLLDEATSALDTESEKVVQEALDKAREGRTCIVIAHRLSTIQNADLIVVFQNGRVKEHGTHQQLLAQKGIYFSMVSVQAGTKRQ

Consider `C[C@@H]1O[C@@H](O[C@H]2C[C@](O)(C(=O)CO)Cc3c(O)c4c(c(O)c32)C(=O)c2ccccc2C4=O)[C@H](I)[C@H](O)[C@H]1O` [Annamycin, (7S,9S)-7-(((2R,3R,4R,5R,6S)-4,5-dihydroxy-3-iodo-6-methyltetrahydro-2H-pyran-2-yl)oxy)-6,9,11-trihydroxy-9-(2-hydroxyacetyl)-7,8,9,10-tetrahydrotetracene-5,12-dione], for which the “substrate for P-glycoprotein 1 (P-gp)” value at P-glycoprotein 1 (P-gp) is listed as “poor substrate”. The Kp in data set [1] was above 10. The “cross-resistance with doxorubicin (DOX)” value in data set [2] was “not cross-resistant”.
